Experimental data: ChEMBL document CHEMBL2074259, “Mouse reduced in osteosclerosis transporter functions as an organic anion transporter 3 and is localized at abluminal membrane of blood-brain barrier” (J Pharmacol Exp Ther, 2004)
Structures can show the parent of a compound that is named as a salt.

Columns and labels:
[1] = biological target: T1, Organic anion transporter 3 (Mus musculus, UniProt O88909); experiment: TP_TRANSPORTER: inhibition of benzylpenicillin uptake by Estradiol sulfate at a concentration of 5uM in Oat3-expressing oocyte cells; type: functional, cell-based; design: scale not given: the % may be the effect or the level left
T1 sequence (O88909 whole entry): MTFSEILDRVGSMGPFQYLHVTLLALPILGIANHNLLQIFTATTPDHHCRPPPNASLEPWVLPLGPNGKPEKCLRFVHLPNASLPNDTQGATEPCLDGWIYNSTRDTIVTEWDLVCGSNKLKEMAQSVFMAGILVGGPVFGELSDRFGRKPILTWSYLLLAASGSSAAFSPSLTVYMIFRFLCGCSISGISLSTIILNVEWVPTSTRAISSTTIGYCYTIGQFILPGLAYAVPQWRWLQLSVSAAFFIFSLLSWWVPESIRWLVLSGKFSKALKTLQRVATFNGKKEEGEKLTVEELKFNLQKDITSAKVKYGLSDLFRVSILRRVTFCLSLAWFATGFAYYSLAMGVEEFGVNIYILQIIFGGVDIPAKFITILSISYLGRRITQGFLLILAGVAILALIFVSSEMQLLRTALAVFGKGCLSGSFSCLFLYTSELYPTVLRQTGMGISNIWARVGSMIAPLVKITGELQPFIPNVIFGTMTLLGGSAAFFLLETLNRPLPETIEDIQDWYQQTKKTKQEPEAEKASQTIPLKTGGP

[2] = biological target: T1, Organic anion transporter 3; experiment: TP_TRANSPORTER: inhibition of benzylpenicillin uptake by 5-Hydroxyindole-3-acetic acid at a concentration of 1000uM in Oat3-expressing oocyte cells; type: functional, cell-based; design: scale not given: the % may be the effect or the level left
[3] = biological target: T1, Organic anion transporter 3; experiment: TP_TRANSPORTER: inhibition of benzylpenicillin uptake by P-aminohippuric acid at a concentration of 1000uM in Oat3-expressing oocyte cells; type: functional, cell-based; design: scale not given: the % may be the effect or the level left
[4] = biological target: T1, Organic anion transporter 3; experiment: (§1) TP_TRANSPORTER: uptake in Oat3-expressing oocyte cells; type: functional, cell-based
[5] = biological target: T2, Oat3 (organic anion transporter 3) (Mus musculus, UniProt O88909); experiment: in vitro; details: Oat3-expressing oocytes, probe benzylpenicillin
T2 sequence (O88909 whole entry): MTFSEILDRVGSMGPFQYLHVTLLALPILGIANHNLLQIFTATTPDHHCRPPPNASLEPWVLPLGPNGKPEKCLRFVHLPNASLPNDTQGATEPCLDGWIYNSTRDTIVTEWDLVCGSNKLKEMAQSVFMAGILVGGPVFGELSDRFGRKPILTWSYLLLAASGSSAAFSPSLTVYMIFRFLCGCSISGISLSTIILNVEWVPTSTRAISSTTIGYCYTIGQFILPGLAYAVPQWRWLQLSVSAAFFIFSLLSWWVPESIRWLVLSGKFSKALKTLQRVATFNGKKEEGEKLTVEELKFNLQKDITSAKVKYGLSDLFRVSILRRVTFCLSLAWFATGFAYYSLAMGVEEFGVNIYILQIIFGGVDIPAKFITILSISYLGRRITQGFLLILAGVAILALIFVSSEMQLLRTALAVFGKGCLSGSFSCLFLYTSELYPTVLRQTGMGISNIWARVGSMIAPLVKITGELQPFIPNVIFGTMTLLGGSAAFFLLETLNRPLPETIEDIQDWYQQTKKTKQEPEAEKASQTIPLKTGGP

[6] = biological target: T1, Organic anion transporter 3; experiment: TP_TRANSPORTER: inhibition of benzylpenicillin uptake by Prostaglandin E2 at a concentration of 1000uM in Oat3-expressing oocyte cells; type: functional, cell-based; design: scale not given: the % may be the effect or the level left
[7] = biological target: T2, Oat3 (organic anion transporter 3); experiment: TP_TRANSPORTER: inhibition of benzylpenicillin uptake by Estradiol glucuronide sulfate at a concentration of 5uM in Oat3-expressing oocyte cells; type: functional, cell-based; design: scale not given: the % may be the effect or the level left; details: Oat3-expressing oocytes, probe benzylpenicillin; read-out: Activity
[8] = biological target: T1, Organic anion transporter 3; experiment: TP_TRANSPORTER: inhibition of benzylpenicillin uptake by Estrone-3-sulfate at a concentration of 1000uM in Oat3-expressing oocyte cells; type: functional, cell-based; design: scale not given: the % may be the effect or the level left
[9] = biological target: T1, Organic anion transporter 3; experiment: TP_TRANSPORTER: inhibition of benzylpenicillin uptake by Homovanillic acid at a concentration of 1000uM in Oat3-expressing oocyte cells; type: functional, cell-based; design: scale not given: the % may be the effect or the level left
[10] = biological target: T1, Organic anion transporter 3; experiment: TP_TRANSPORTER: inhibition of benzylpenicillin uptake by Indomethacin at a concentration of 1000uM in Oat3-expressing oocyte cells; type: functional, cell-based; design: scale not given: the % may be the effect or the level left
[11] = biological target: T1, Organic anion transporter 3; experiment: TP_TRANSPORTER: inhibition of benzylpenicillin uptake in Oat3-expressing oocyte cells; type: functional, cell-based; design: scale not given: the % may be the effect or the level left
[12] = biological target: T2, Oat3 (organic anion transporter 3); experiment: TP_TRANSPORTER: inhibition of benzylpenicillin uptake by Indoxyl sulfate at a concentration of 1000uM in Oat3-expressing oocyte cells; type: functional, cell-based; design: scale not given: the % may be the effect or the level left; details: Oat3-expressing oocytes, probe benzylpenicillin; read-out: Activity
[13] = biological target: T2, Oat3 (organic anion transporter 3); experiment: TP_TRANSPORTER: inhibition of benzylpenicillin uptake by Triiodothyronine at a concentration of 1000uM in Oat3-expressing oocyte cells; type: functional, cell-based; design: scale not given: the % may be the effect or the level left; details: Oat3-expressing oocytes, probe benzylpenicillin; read-out: Activity
[14] = biological target: T1, Organic anion transporter 3; experiment: TP_TRANSPORTER: inhibition of benzylpenicillin uptake by Methotrexate at a concentration of 1000uM in Oat3-expressing oocyte cells; type: functional, cell-based; design: scale not given: the % may be the effect or the level left
[15] = biological target: T2, Oat3 (organic anion transporter 3); experiment: TP_TRANSPORTER: inhibition of benzylpenicillin uptake by Pravastatin at a concentration of 1000uM in Oat3-expressing oocyte cells; type: functional, cell-based; design: scale not given: the % may be the effect or the level left; details: Oat3-expressing oocytes, probe benzylpenicillin; read-out: Activity
[16] = biological target: T1, Organic anion transporter 3; experiment: TP_TRANSPORTER: inhibition of benzylpenicillin uptake by Probenecid at a concentration of 1000uM in Oat3-expressing oocyte cells; type: functional, cell-based; design: scale not given: the % may be the effect or the level left
[17] = biological target: T1, Organic anion transporter 3; experiment: TP_TRANSPORTER: inhibition of benzylpenicillin uptake by Bromosulfophthalein at a concentration of 1000uM in Oat3-expressing oocyte cells; type: functional, cell-based; design: scale not given: the % may be the effect or the level left
[18] = biological target: T2, Oat3 (organic anion transporter 3); experiment: TP_TRANSPORTER: inhibition of benzylpenicillin uptake by Urate at a concentration of 1000uM in Oat3-expressing oocyte cells; type: functional, cell-based; design: scale not given: the % may be the effect or the level left; details: Oat3-expressing oocytes, probe benzylpenicillin; read-out: Activity
[19] = biological target: T1, Organic anion transporter 3; experiment: TP_TRANSPORTER: inhibition of benzylpenicillin uptake by 3'-Azido-3'-deoxythymidine at a concentration of 1000uM in Oat3-expressing oocyte cells; type: functional, cell-based; design: scale not given: the % may be the effect or the level left
[20] = substrate: CC1(C)S[C@@H]2[C@H](NC(=O)Cc3ccccc3)C(=O)N2[C@H]1C(=O)O; experiment: as §1; type: functional, cell-based
[21] = substrate: C[C@]12CC[C@@H]3c4ccc(O)cc4CC[C@H]3[C@@H]1CC[C@@H]2O[C@@H]1O[C@H](C(=O)O)[C@@H](O)[C@H](O)[C@H]1O; experiment: as §1; type: functional, cell-based

Work on `C[C@]12CC[C@@H]3c4ccc(O)cc4CC[C@H]3[C@@H]1CC[C@H]2O.O=S(=O)(O)O` yielded an Activity [1] of 65.5%.

`O=C(O)Cc1c[nH]c2ccc(O)cc12` was tested, and the Activity [2] was 21.7%.

`Nc1ccc(C(=O)NCC(=O)O)cc1` [AMINOHIPPURIC ACID] was tested, and the Activity [3] was 14.2% and the Activity [4] was “substrate []”.

`CN/C(=N/CCSCc1nc[nH]c1C)NC#N` [CIMETIDINE] was tested, and the activity at 1000 µM [5] was 6.88% and the Activity [4] was “substrate []”.

`CCCCC[C@H](O)/C=C/[C@H]1[C@H](O)CC(=O)[C@@H]1C/C=C\CCCC(=O)O` [DINOPROSTONE] was tested, and the Activity [6] was 0.101%.

Molecule `C[C@]12CC[C@@H]3c4ccc(OS(=O)(=O)O)cc4CC[C@H]3[C@@H]1CC[C@@H]2O[C@@H]1O[C@H](C(=O)O)[C@@H](O)[C@H](O)[C@H]1O` [ESTRADIOL GLUCURONIDE SULFATE] has an activity at 5 µM [7] of 62.4%.

`C[C@]12CC[C@@H]3c4ccc(OS(=O)(=O)O)cc4CC[C@H]3[C@@H]1CCC2=O` [ESTRONE SULFURIC ACID] was tested, and the Activity [8] was 11.4% and the Activity [4] was “substrate []”.

For `O=C(O)CCCC(=O)O` [GLUTARATE], the Activity [4] was “substrate []”.

For `COc1cc(CC(=O)O)ccc1O` [HOMOVANILLIC ACID], the Activity [4] was “substrate []” and the Activity [9] was 40.9%.

With `COc1ccc2c(c1)c(CC(=O)O)c(C)n2C(=O)c1ccc(Cl)cc1` [INDOMETHACIN] the Activity [10] was 1.32% and the Activity [4] was “substrate []”.

For `O=C(O)[C@H]1O[C@@H](Oc2c[nH]c3ccccc23)[C@H](O)[C@@H](O)[C@@H]1O` [INDOXYL GLUCURONIDE], the Activity [11] was 72.3%.

`O=S(=O)(O)Oc1c[nH]c2ccccc12` [INDOXYL SULFATE] was tested, and the Activity [4] was “substrate []” and the activity at 1000 µM [12] was 21.9%.

Work on `N[C@@H](Cc1cc(I)c(Oc2ccc(O)c(I)c2)c(I)c1)C(=O)O` [LIOTHYRONINE] yielded an activity at 1000 µM [13] of 39.8%.

`CN(Cc1cnc2nc(N)nc(N)c2n1)c1ccc(C(=O)N[C@@H](CCC(=O)O)C(=O)O)cc1` [METHOTREXATE] was tested, and the Activity [14] was 48.4% and the Activity [4] was “substrate []”.

Work on `CC[C@H](C)C(=O)O[C@H]1C[C@H](O)C=C2C=C[C@H](C)[C@H](CC[C@@H](O)C[C@@H](O)CC(=O)O)[C@H]21` [PRAVASTATIN] yielded an activity at 1000 µM [15] of 2.85%.

With `CCCN(CCC)S(=O)(=O)c1ccc(C(=O)O)cc1` [PROBENECID] the Activity [16] was 0.625%.

In the case of `O=C(O)c1ccccc1O` [SALICYLIC ACID], the Activity [4] is reported as “substrate []”.

`O=C1OC(c2ccc(O)c(S(=O)(=O)[O-])c2)(c2ccc(O)c(S(=O)(=O)[O-])c2)c2c(Br)c(Br)c(Br)c(Br)c21.[Na+].[Na+]` [SULFOBROMOPHTHALEIN SODIUM] showed an Activity [17] of 2.54%.

In the case of `O=c1[nH]c(=O)c2[nH]c(=O)[nH]c2[nH]1` [URIC ACID], the activity at 1000 µM [18] is reported as 19.9%.

For `Cc1cn([C@H]2C[C@H](N=[N+]=[N-])[C@@H](CO)O2)c(=O)[nH]c1=O` [ZIDOVUDINE], the Activity [19] was 5.13%.

B1: Organic anion transporter 3 (Mus musculus) (protein)
chain: MTFSEILDRVGSMGPFQYLHVTLLALPILGIANHNLLQIFTATTPDHHCRPPPNASLEPWVLPLGPNGKPEKCLRFVHLPNASLPNDTQGATEPCLDGWIYNSTRDTIVTEWDLVCGSNKLKEMAQSVFMAGILVGGPVFGELSDRFGRKPILTWSYLLLAASGSSAAFSPSLTVYMIFRFLCGCSISGISLSTIILNVEWVPTSTRAISSTTIGYCYTIGQFILPGLAYAVPQWRWLQLSVSAAFFIFSLLSWWVPESIRWLVLSGKFSKALKTLQRVATFNGKKEEGEKLTVEELKFNLQKDITSAKVKYGLSDLFRVSILRRVTFCLSLAWFATGFAYYSLAMGVEEFGVNIYILQIIFGGVDIPAKFITILSISYLGRRITQGFLLILAGVAILALIFVSSEMQLLRTALAVFGKGCLSGSFSCLFLYTSELYPTVLRQTGMGISNIWARVGSMIAPLVKITGELQPFIPNVIFGTMTLLGGSAAFFLLETLNRPLPETIEDIQDWYQQTKKTKQEPEAEKASQTIPLKTGGP
In the case of B1, the Km [20] is reported as 40 µM and the Km [21] is reported as 5.5 µM.
